Structures can show the parent of a compound that is named as a salt.
Key:
[1] = Evaluation of a conversion rate to 2-acetylnaphtho[2,3-b]furan-4,9-dione in human plasma; format: in vitro ADME; conditions: 1 umol/L
Experimental: (§1) For test compounds, the decrease rate of the test compounds and the conversion rate thereof to 2-acetylnaphtho[2,3-b]furan-4,9-dione in human plasma, CD1 mouse plasma, and pH 7.4 phosphate buffer solution were measured.
(§2) Test compounds were incubated at the concentration of 1 umol/L in human plasma (cat. no. 12250210, COSMO BIO), CD1 mouse plasma (cat. no. AP3054, KAC), and phosphate buffer solution at 37° C., and removed at predetermined times (0, 5, 10, 30, 60, and 120 minutes). After protein-removing treatment was performed, they are analyzed with LC-MS. It should be noted that the protein-removing treatment used acetonitrile containing: 10% volume of 1 mol/L hydrochloric acid; 1% volume of 46% citric acid; and phenytoin as an internal standard.
(§3) The measurement condition of LC-MS is as described below. LC-MS condition column: Kinetex 2.6 u PFP 100 A 50×2.1 mm Column temperature: 40° C.
(§4) Mobile phase: A: 0.1% formic acid-containing water
(§5) • B: 0.1% formic acid-containing acetonitrile A/B(min): 95/5(0)→5/95(3)→5/95(4)→95/5(4.1)→95/5(6) Flow rate: 0.4 mL/min Detection: ESI (positive mode) Injection volume: 10 uL
In the same way as Example 6, the incubation time was set as 120 minutes later, and the conversion rate of each of various test compounds to 2-acetylnaphtho[2,3-b]furan-4,9-dione in human plasma, CD1 mouse plasma, and pH 7.4 phosphate buffer solution was measured.

[2] = Evaluation of a conversion rate to 2-acetylnaphtho[2,3-b]furan-4,9-dione in CD1 mouse plasma; format: in vitro ADME; conditions: 1 umol/L
Experimental: as §1, §2, §3, §4, §5
(§6) Measurement values are calculated from the peak area ratio in LC-MS between an internal standard material, phenytoin and an active form, 2-acetylnaphtho[2,3-b]furan-4,9-dione, and are expressed in %.
(§7) In the same way as Example 6, the incubation time was set as 120 minutes later, and the conversion rate of each of various test compounds to 2-acetylnaphtho[2,3-b]furan-4,9-dione in human plasma, CD1 mouse plasma, and pH 7.4 phosphate buffer solution was measured. A series of the present compounds were confirmed to be converted to 2-acetylnaphtho[2,3-b]furan-4,9-dione in pH 7.4 phosphate buffer solution in addition to human plasma and CD1 mouse plasma. Therefore, a series of the test compounds of the present invention were confirmed to be converted to the activated form via a route other than an enzymatic conversion.

[3] = Evaluation of a conversion rate to 2-acetylnaphtho[2,3-b]furan-4,9-dione in pH 7.4 phosphate buffer solution; format: physicochemical; conditions: 1 umol/L, 37° C.; for % Measurement value (conversion rate to 2-acetylnaphtho[2,3-b]furan-4,9-dione): Phosphate buffer solution (pH 7.4); for % Measurement value of Activated form (conversion rate to 2-acetylnaphtho[2,3-b]furan-4,9-dione): formed from Example 6, phosphate buffer solution (pH 7.4)
Experimental: as §1, §2, §3, §4, §5, §6, §7

[4] = Solubility test; conditions: 50 mmol/L glycine buffer solution (pH 2.0), room temperature, 24 hours shaking
Experimental: A water-soluble prodrug was added into 50 mmol/L glycine buffer solution (pH 2.0). After shaking at room temperature for 24 hours, the mixture was filtered through a membrane filter, and then the filtrate was measured with HPLC.
The measurement condition of HPLC is as described below. HPLC condition column: Acquity UPLC BEH C18, 1.7 um, 50×2.1 mm
Mobile phase: A: 0.1% trifluoroacetic acid-containing water

[5] = Human plasma, 37° C., incubation time 120 min
[6] = CD1 mouse plasma, 37° C., incubation time 120 min

| Compound | % Measurement value (conversion rate to 2-acetylnaphtho[2,3-b]furan-4,9-dione) [1, 5] | % Measurement value (conversion rate to 2-acetylnaphtho[2,3-b]furan-4,9-dione) [2, 6] | % Measurement value (conversion rate to 2-acetylnaphtho[2,3-b]furan-4,9-dione) ([3]; incubation time 120 min) | Solubility in pH 2.0 buffer solution [4] | further results |
| --- | --- | --- | --- | --- | --- |
| CCNCCCCOC(=O)Oc1c2ccccc2c(OC(=O)OCCCCNCC)c2oc(C(C)=O)cc12.Cl.Cl [Example 28] | 73% | 85% | 34% |  |  |
| CC(=O)c1cc2c(OC(=O)NC3CCC(N)CC3)c3ccccc3c(OC(=O)NC3CCC(N)CC3)c2o1.Cl.Cl (stereo not drawn) [Example 7] | 69% | 51% | 41% |  |  |
| CC(=O)c1cc2c(OC(=O)NCCN)c3ccccc3c(O)c2o1.Cl [Example 18] | 81% | 73% | 80% |  |  |
| CC(=O)c1cc2c(OC(=O)OCCCCN)c3ccccc3c(OC(=O)OCCCCN)c2o1 [Example 21, 2-Acetylnaphtho[2,3-b]furan-4,9-diyl bis(4-aminobutyl)bis(carbonate)dihydrochloride] |  |  | 24% |  | % Measurement value (conversion rate to 2-acetylnaphtho[2,3-b]furan-4,9-dione) ([1]; human, 120 min): 40%; % Measurement value (conversion rate to 2-acetylnaphtho[2,3-b]furan-4,9-dione) ([2]; CD1, mouse, 120 min): 44% |
| CC(=O)c1cc2c(OC(=O)NCC[C@H](N)C(=O)O)c3ccccc3c(OC(=O)NCC[C@H](N)C(=O)O)c2o1.Cl.Cl [Example 12] | 63% | 78% | 63% |  |  |
| CC(=O)c1cc2c(OC(=O)NC3CCNCC3)c3ccccc3c(OC(=O)NC3CCNCC3)c2o1.Cl.Cl [Example 8] | 79% | 79% | 49% |  |  |
| CC(=O)c1cc2c(OC(=O)NCCCCN)c3ccccc3c(OC(=O)NCCCCN)c2o1.Cl.Cl [Example 13] | 95% | 50% | 13% |  |  |
| CC(=O)c1cc2c(o1)C(=O)c1ccccc1C2=O [Activated form, 2-acetylnaphtho[2,3-b]furan-4,9-dione, reference compound] |  |  |  |  | % Measurement value of Activated form (conversion rate to 2-acetylnaphtho[2,3-b]furan-4,9-dione) ([1]; human, 0 min): 0%; % Measurement value of Activated form (conversion rate to 2-acetylnaphtho[2,3-b]furan-4,9-dione) ([1]; human, 5 min): 24%; % Measurement value of Activated form (conversion rate to 2-acetylnaphtho[2,3-b]furan-4,9-dione) ([1]; human, 10 min): 31%; % Measurement value of Activated form (conversion rate to 2-acetylnaphtho[2,3-b]furan-4,9-dione) ([1]; human, 30 min): 48%; % Measurement value of Activated form (conversion rate to 2-acetylnaphtho[2,3-b]furan-4,9-dione) ([1]; human, 60 min): 64%; % Measurement value of Activated form (conversion rate to 2-acetylnaphtho[2,3-b]furan-4,9-dione) ([1]; human, 120 min): 71%; % Measurement value of Activated form (conversion rate to 2-acetylnaphtho[2,3-b]furan-4,9-dione) ([2]; CD1, mouse, 0 min): 0%; % Measurement value of Activated form (conversion rate to 2-acetylnaphtho[2,3-b]furan-4,9-dione) ([2]; CD1, mouse, 5 min): 23%; % Measurement value of Activated form (conversion rate to 2-acetylnaphtho[2,3-b]furan-4,9-dione) ([2]; CD1, mouse, 10 min): 31%; % Measurement value of Activated form (conversion rate to 2-acetylnaphtho[2,3-b]furan-4,9-dione) ([2]; CD1, mouse, 30 min): 63%; % Measurement value of Activated form (conversion rate to 2-acetylnaphtho[2,3-b]furan-4,9-dione) ([2]; CD1, mouse, 60 min): 67%; % Measurement value of Activated form (conversion rate to 2-acetylnaphtho[2,3-b]furan-4,9-dione) ([2]; CD1, mouse, 120 min): 76%; % Measurement value of Activated form (conversion rate to 2-acetylnaphtho[2,3-b]furan-4,9-dione) ([3]; incubation time 0 min): 0%; % Measurement value of Activated form (conversion rate to 2-acetylnaphtho[2,3-b]furan-4,9-dione) ([3]; incubation time 5 min): 20%; % Measurement value of Activated form (conversion rate to 2-acetylnaphtho[2,3-b]furan-4,9-dione) ([3]; incubation time 10 min): 29%; % Measurement value of Activated form (conversion rate to 2-acetylnaphtho[2,3-b]furan-4,9-dione) ([3]; incubation time 30 min): 55%; % Measurement value of Activated form (conversion rate to 2-acetylnaphtho[2,3-b]furan-4,9-dione) ([3]; incubation time 60 min): 61%; % Measurement value of Activated form (conversion rate to 2-acetylnaphtho[2,3-b]furan-4,9-dione) ([3]; incubation time 120 min): 78% |
| CC(=O)c1cc2c(OC(=O)NCCNCc3ccccc3)c3ccccc3c(OC(=O)NCCNCc3ccccc3)c2o1.Cl.Cl [Example 55] | 86% |  | 63% | >5.0 mg/mL |  |
| CC(=O)c1cc2c(OC(=O)NCCCNCC(=O)NCC(=O)O)c3ccccc3c(OC(=O)NCCCNCC(=O)NCC(=O)O)c2o1.Cl.Cl [Example 64] | 57% |  | 40% | >5.0 mg/mL |  |
| CC(=O)c1cc2c(O)c3ccccc3c(OC(=O)NCCNCCS(C)(=O)=O)c2o1.Cl [Example 81] | 74% |  | 27% | 0.9 mg/mL |  |
| CC(=O)c1cc2c(O)c3ccccc3c(OC(=O)NCCCNCCS(=O)(=O)N(C)C)c2o1.Cl [Example 80] | 54% |  | 32% | 1.0 mg/mL |  |
| CC(=O)c1cc2c(O)c3ccccc3c(OC(=O)NCCCNCC(=O)N3CCC3)c2o1.Cl [Example 86] | 55% |  | 38% | >5.0 mg/mL |  |
| CC(=O)c1cc2c(OC(=O)NCCCNCC(F)(F)F)c3ccccc3c(OC(=O)NCCCNCC(F)(F)F)c2o1.Cl.Cl [Example 53] | 100% |  | 41% | >5.0 mg/mL |  |
| CC(=O)c1cc2c(OC(=O)NCCCNCCS(=O)(=O)N(C)C)c3ccccc3c(OC(=O)NCCCNCCS(=O)(=O)N(C)C)c2o1.Cl.Cl [Example 59] | 81% |  | 66% | >5.0 mg/mL |  |
| COC(=O)OCCNCCNC(=O)Oc1c2ccccc2c(OC(=O)NCCNCCOC(=O)OC)c2oc(C(C)=O)cc12.Cl.Cl [Example 69] | 90% |  | 71% | >5.0 mg/mL |  |
| CC(=O)c1cc2c(OC(=O)NCCNCCS(=O)(=O)C(C)C)c3ccccc3c(OC(=O)NCCNCCS(=O)(=O)C(C)C)c2o1.Cl.Cl [Example 58] | 81% |  | 40% | 1.5 mg/mL |  |
| CC(=O)c1cc2c(OC(=O)NCCNCCOC(N)=O)c3ccccc3c(OC(=O)NCCNCCOC(N)=O)c2o1.Cl.Cl [Example 65] | 81% |  | 73% | >5.0 mg/mL |  |
| COC(=O)CNCCCNC(=O)Oc1c2ccccc2c(OC(=O)NCCCNCC(=O)OC)c2oc(C(C)=O)cc12.Cl.Cl [Example 47] | 92% |  | 65% | >5.0 mg/mL |  |
| COC(=O)OCCNCCCNC(=O)Oc1c2ccccc2c(OC(=O)NCCCNCCOC(=O)OC)c2oc(C(C)=O)cc12.Cl.Cl [Example 70] | 66% |  | 48% | >5.0 mg/mL |  |
| CC(=O)c1cc2c(OC(=O)NCCOCCN)c3ccccc3c(OC(=O)NCCOCCN)c2o1.Cl.Cl [Example 9] | 65% | 81% | 50% |  |  |
| CC(=O)c1cc2c(OC(=O)NC3CCCNC3)c3ccccc3c(OC(=O)NC3CCCNC3)c2o1.Cl.Cl (stereo not drawn) [Example 49] | 77% |  | 58% | >5.0 mg/mL |  |

Source: patent US10800752B2, “Substituted naphtho[2,3-b]furans as water-soluble prodrugs for preventing and/or treating cancer” (BOSTON BIOMEDICAL, INC., priority 2015, dated 2020)
